{"source": "paper PMC12526278", "about": "“Origanum vulgare subsp. virens (Hoffmanns. & Link) Bonnier & Layens Essential Oils: Chemotypes and Bioactivity as Antifungal, Antifeeding and Enzyme Inhibitors” (Plants, 2025)", "key": {"[1]": {"target": "T1, α-glucosidase (α-GLU) extracted from Saccharomyces cerevisiae", "T1 construct": "gene MAL12; commercial yeast enzyme (Sigma-Aldrich)", "experiment": "4-nitrophenol release, absorbance […] nm", "assay_type": "biochemical", "settings": "4-nitrophenyl alpha-D-glucopyranoside (5 mM solution), 0.1 M phosphate pH 7.0, 37 °C, 20 min"}, "[2]": {"target": "T2, AChE from Electrophorus electricus (Electrophorus electricus, UniProt O42275)", "T2 sequence (O42275 24-633)": "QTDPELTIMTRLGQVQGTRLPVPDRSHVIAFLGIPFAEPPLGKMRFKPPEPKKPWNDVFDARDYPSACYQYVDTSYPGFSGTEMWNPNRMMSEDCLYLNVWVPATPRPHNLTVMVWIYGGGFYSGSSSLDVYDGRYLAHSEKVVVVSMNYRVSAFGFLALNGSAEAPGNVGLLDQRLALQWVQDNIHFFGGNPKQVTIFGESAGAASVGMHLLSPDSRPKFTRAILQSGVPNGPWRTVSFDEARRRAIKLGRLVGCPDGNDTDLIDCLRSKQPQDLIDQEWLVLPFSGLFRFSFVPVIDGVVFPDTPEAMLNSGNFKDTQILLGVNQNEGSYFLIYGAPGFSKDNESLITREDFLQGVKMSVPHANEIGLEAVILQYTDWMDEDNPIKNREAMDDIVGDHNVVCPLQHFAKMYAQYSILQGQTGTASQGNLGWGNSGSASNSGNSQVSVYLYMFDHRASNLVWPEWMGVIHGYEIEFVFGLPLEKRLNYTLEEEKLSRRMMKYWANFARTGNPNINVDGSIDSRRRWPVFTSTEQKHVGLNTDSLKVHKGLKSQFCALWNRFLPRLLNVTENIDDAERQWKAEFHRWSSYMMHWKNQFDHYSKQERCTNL", "experiment": "Ellman assay, absorbance […] nm", "assay_type": "biochemical", "settings": "acetylthiocholine iodide substrate with DTNB, phosphate buffer, 5 min preincubation; unreliable (above the tested range, extrapolated)"}, "[3]": {"test_system": "T1, α-glucosidase (α-GLU) extracted from Saccharomyces cerevisiae", "experiment": "4-nitrophenol release, absorbance […] nm", "assay_type": "biochemical", "settings": "4-nitrophenyl alpha-D-glucopyranoside (5 mM solution), 0.1 M phosphate pH 7.0, 37 °C, 20 min; unreliable (far above the tested range, extrapolated)"}, "[4]": {"target": "T2, AChE from Electrophorus electricus", "experiment": "biochemical"}, "[5]": {"target": "T2, AChE from Electrophorus electricus", "experiment": "Ellman assay, absorbance […] nm", "assay_type": "biochemical", "settings": "acetylthiocholine iodide substrate with DTNB, phosphate buffer; no significant inhibition"}, "[6]": {"target": "T3, β-glucosidase (β-GLU) from almonds", "T3 construct": "gene beta-glucosidase; commercial enzyme from almonds (Sigma-Aldrich)", "experiment": "4-nitrophenol release, absorbance […] nm", "assay_type": "biochemical, Prunus dulcis", "settings": "4-nitrophenyl beta-D-glucopyranoside, 0.1 M phosphate pH 7.0, 37 °C, 20 min"}}}
{"compound": "Cc1ccc(C(C)C)c(O)c1", "note": "[Thymol]", "values": [{"measurement": "α-GLU / IC50", "setting": "[1]", "value": "304 ± 25", "unit": "µg/mL"}, {"measurement": "IC50", "setting": "[2]", "value": "2531 ± 515", "unit": "µg/mL"}]}
{"compound": "Cc1ccc(C(C)C)cc1O", "note": "[Carvacrol]", "values": [{"measurement": "α-GLU / IC50", "setting": "[3]", "value": "109340 ± 23120", "unit": "µg/mL"}, {"measurement": "IC50", "setting": "[4]", "value": 180, "unit": "µM"}]}
{"compound": "CC1=CCC(C(C)C)=CC1", "note": "[γ-terpinene]", "values": [{"measurement": "Ellman assay, absorbance 405 nm", "setting": "[5]", "value": "did not show significant AChE inhibition under our experimental conditions"}]}
{"compound": "OC[C@H]1NC[C@H](O)[C@@H](O)[C@@H]1O", "note": "[1-DNJ]", "values": [{"measurement": "β-GLU / IC50", "setting": "[6]", "value": "36 ± 1", "unit": "µg/mL"}]}
